Assay results taken from PubChem BioAssay (NCI).
Values joined by “and” are separate entries in the source; they are usually repeats but may differ in a detail not shown here. Identical values can stand only once.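 Dose response: 5 concentrations. Exposure: 48 h. Format: 96-well plates. Endpoint: linear interpolation; highest concentration if not reached. GI50 = concentration required for 50% inhibition of growth. TGI marks complete inhibition of growth.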 Where a SMILES comes first, the peptide text is derived from it. [ ]: non-standard residue; d: D form. Phe(F5) = N[CH](Cc1c(F)c(F)c(F)c(F)c1F)C(=O)O

Columns and labels:
Assay in all cases: DTP human tumour cell line panel, 48 h
[1] = system: UACC-62 melanoma
[2] = system: RXF 393 renal
[3] = system: DU-145 prostate
[4] = system: MALME-3M melanoma
[5] = system: HCT-116 colon
[6] = system: SK-OV-3 ovarian
[7] = system: RPMI-8226 leukemia
[8] = system: SNB-19 CNS
[9] = system: NCI-H226 lung
[10] = system: OVCAR-8 ovarian

**Q.** Which GI50 [1] does the source give for `CC[C@H](Nc1nc(N)nc(C)c1C#N)c1nc2cccc(CN(C)c3ncc(C(=O)NO)cn3)c2c(=O)n1-c1ccccc1` here?
**A.** 199 nM

**Q.** And the TGI [1]?
**A.** 897 nM

**Q.** What about the GI50 [2] of the same molecule?
**A.** 470 nM

**Q.** What about the TGI [2] of the same molecule?
**A.** 1330 nM

**Q.** And the GI50 [3]?
**A.** 1110 nM

**Q.** And the TGI [3]?
**A.** > 16700 nM

**Q.** And the GI50 [4]?
**A.** 129 nM

**Q.** What about the TGI [4] of the same molecule?
**A.** 2470 nM

**Q.** And the GI50 [5]?
**A.** 364 nM

**Q.** And the TGI [5]?
**A.** 2920 nM

**Q.** And the GI50 [6]?
**A.** 969 nM

**Q.** What about the TGI [6] of the same molecule?
**A.** 3220 nM

**Q.** What about the GI50 [7] of the same molecule?
**A.** 212 nM

**Q.** And the TGI [7]?
**A.** > 40800 nM

**Q.** And the GI50 [8]?
**A.** 827 nM

**Q.** What about the TGI [8] of the same molecule?
**A.** 6400 nM

**Q.** What about the GI50 [9] of the same molecule?
**A.** 1180 nM

**Q.** What about the TGI [9] of the same molecule?
**A.** 7070 nM

**Q.** What about the GI50 [10] of the same molecule?
**A.** 704 nM

**Q.** What about the TGI [10] of the same molecule?
**A.** 10300 nM

**Q.** `CC[C@](C)(O)C(=O)O[C@H]1C(=O)O[C@@H]2C[C@H]3C(C)=CC(=O)[C@@H](O)[C@]3(C)[C@H]3[C@@]4(O)OC[C@]32[C@@H]1[C@@H](C)[C@H]4O` was tested. Which GI50 [1] did it give?
**A.** 149 nM

**Q.** What about the TGI [1] of the same molecule?
**A.** 705 nM and 178 nM

**Q.** And the GI50 [2]?
**A.** 285 nM

**Q.** What about the TGI [3] of the same molecule?
**A.** 2900 nM

**Q.** And the GI50 [4]?
**A.** 33.7 nM

**Q.** And the TGI [4]?
**A.** 137 nM

**Q.** And the GI50 [5]?
**A.** 220 nM

**Q.** And the TGI [5]?
**A.** 957 nM and 376 nM

**Q.** What about the GI50 [6] of the same molecule?
**A.** 1340 nM

**Q.** And the TGI [6]?
**A.** 13900 nM and 4290 nM

**Q.** What about the GI50 [7] of the same molecule?
**A.** 92.8 nM

**Q.** And the TGI [8]?
**A.** 674 nM and 223 nM

**Q.** What about the GI50 [9] of the same molecule?
**A.** 203 nM

**Q.** What about the TGI [9] of the same molecule?
**A.** 664 nM and 435 nM

**Q.** And the GI50 [10]?
**A.** 164 nM

**Q.** And the TGI [10]?
**A.** 1740 nM and 541 nM

**Q.** For `CC12CCC=CC1CCC1C2CCC2(C)C(c3ccc(=O)oc3)CCC12O` (stereo unspecified), which GI50 [1] is on record?
**A.** 221 nM

**Q.** And the TGI [1]?
**A.** 723 nM

**Q.** What about the GI50 [2] of the same molecule?
**A.** 16.7 nM

**Q.** What about the TGI [2] of the same molecule?
**A.** 47 nM

**Q.** And the GI50 [3]?
**A.** 55.3 nM

**Q.** And the TGI [3]?
**A.** 165 nM

**Q.** And the GI50 [4]?
**A.** 42.3 nM

**Q.** What about the TGI [4] of the same molecule?
**A.** 204 nM

**Q.** What about the GI50 [5] of the same molecule?
**A.** 39.6 nM

**Q.** And the TGI [5]?
**A.** 389 nM

**Q.** And the GI50 [6]?
**A.** 218 nM

**Q.** What about the TGI [6] of the same molecule?
**A.** 641 nM

**Q.** And the GI50 [7]?
**A.** 99.4 nM

**Q.** And the TGI [7]?
**A.** 777 nM

**Q.** And the GI50 [8]?
**A.** 215 nM

**Q.** And the TGI [8]?
**A.** 1230 nM

**Q.** And the GI50 [9]?
**A.** 224 nM

**Q.** And the TGI [9]?
**A.** 614 nM

**Q.** What about the GI50 [10] of the same molecule?
**A.** 99.9 nM

**Q.** What about the TGI [10] of the same molecule?
**A.** 501 nM

**Q.** For `c1ccc2nc(Cn3c[n+](Cc4ccc5ccccc5n4)c4ccccc43)ccc2c1`, which GI50 [1] is on record?
**A.** 1340 nM

**Q.** And the TGI [1]?
**A.** 3510 nM

**Q.** What about the GI50 [2] of the same molecule?
**A.** 3100 nM

**Q.** And the TGI [2]?
**A.** 12000 nM

**Q.** What about the GI50 [3] of the same molecule?
**A.** 4550 nM

**Q.** What about the TGI [3] of the same molecule?
**A.** 17000 nM

**Q.** What about the GI50 [4] of the same molecule?
**A.** 1260 nM

**Q.** What about the TGI [4] of the same molecule?
**A.** 4700 nM

**Q.** And the GI50 [5]?
**A.** 2400 nM

**Q.** What about the TGI [5] of the same molecule?
**A.** 12200 nM

**Q.** What about the GI50 [6] of the same molecule?
**A.** 3030 nM

**Q.** What about the TGI [6] of the same molecule?
**A.** 11300 nM

**Q.** What about the GI50 [7] of the same molecule?
**A.** 681 nM

**Q.** And the TGI [7]?
**A.** 4050 nM

**Q.** What about the GI50 [8] of the same molecule?
**A.** 2220 nM

**Q.** And the TGI [8]?
**A.** 10400 nM

**Q.** And the GI50 [9]?
**A.** 4130 nM

**Q.** What about the TGI [9] of the same molecule?
**A.** 20400 nM

**Q.** What about the GI50 [10] of the same molecule?
**A.** 3130 nM

**Q.** And the TGI [10]?
**A.** 11300 nM

**Q.** Which results are given for `N=C(N)c1nn(C2OC(CO)C(O)C2O)c2nc[nH]c(=O)c12` (stereo unspecified)?
**A.** GI50 [1]: 431 nM; TGI [1]: 1630 nM; GI50 [2]: 696 nM; TGI [2]: 4890 nM; GI50 [3]: 196 nM; TGI [3]: 780 nM; GI50 [4]: 206 nM; TGI [4]: 612 nM; GI50 [5]: 347 nM; TGI [5]: 1290 nM; GI50 [6]: 409 nM; TGI [6]: 2970 nM; GI50 [7]: 352 nM; TGI [7]: 2500 nM; GI50 [8]: 2340 nM; TGI [8]: 8710 nM; GI50 [9]: 611 nM; TGI [9]: 3740 nM; GI50 [10]: 435 nM; TGI [10]: 7220 nM

**Q.** What does the source list for `COC(=O)C(CC(C)C)NC(=O)C(Cc1cnc[nH]1)NC(=O)CNC(=O)C(NC(=O)C(C)NC(=O)C(Cc1c[nH]c2ccccc12)NC(=O)C(CCC(=O)O)NC(=O)C(N)Cc1c(F)c(F)c(F)c(F)c1F)C(C)C` (stereo unspecified) (H-[Phe(F5)]EWAVGHL-OMe; configuration not given here)?
**A.** GI50 [1]: > 100000 nM; TGI [1]: > 100000 nM; GI50 [2]: > 100000 nM; TGI [2]: > 100000 nM; TGI [3]: > 12500 nM; TGI [4]: > 12500 nM; GI50 [5]: > 100000 nM; TGI [5]: > 100000 nM; TGI [6]: > 12500 nM; GI50 [7]: > 100000 nM; TGI [7]: > 100000 nM; TGI [8]: > 100000 nM; TGI [9]: > 12500 nM; GI50 [10]: > 100000 nM; TGI [10]: > 100000 nM
